Test results reported in ChEMBL document CHEMBL6177974, “Synthesis and Pharmacological Characterization of Novel Peripheral Cannabinoid-1 Receptor Blockers Based on a Tricyclic Scaffold” (J Med Chem, 2025).
The source made the active and inactive calls. The rule behind the calls is not given here.

How the values were obtained:
Mus musculus [1] = assay: Inhibition of WIN55212-induced catalepsy in male C57Bl/6J mouse at 10 mg/kg, po; type: functional, organism-based
[2] = molecular target: Cannabinoid receptor 1 (Mus musculus) (UniProt P47746); assay: Antagonist activity at CB1R in C57Bl/6Jhsd mouse cortex membrane assessed as inhibition of [35S]GTPgammaS binding incubated for 1 hr by liquid scintillation counter analysis; type: functional, cell membranes; conditions: filed as antagonist
Chain of Cannabinoid receptor 1 (Mus musculus) (P47746 whole entry): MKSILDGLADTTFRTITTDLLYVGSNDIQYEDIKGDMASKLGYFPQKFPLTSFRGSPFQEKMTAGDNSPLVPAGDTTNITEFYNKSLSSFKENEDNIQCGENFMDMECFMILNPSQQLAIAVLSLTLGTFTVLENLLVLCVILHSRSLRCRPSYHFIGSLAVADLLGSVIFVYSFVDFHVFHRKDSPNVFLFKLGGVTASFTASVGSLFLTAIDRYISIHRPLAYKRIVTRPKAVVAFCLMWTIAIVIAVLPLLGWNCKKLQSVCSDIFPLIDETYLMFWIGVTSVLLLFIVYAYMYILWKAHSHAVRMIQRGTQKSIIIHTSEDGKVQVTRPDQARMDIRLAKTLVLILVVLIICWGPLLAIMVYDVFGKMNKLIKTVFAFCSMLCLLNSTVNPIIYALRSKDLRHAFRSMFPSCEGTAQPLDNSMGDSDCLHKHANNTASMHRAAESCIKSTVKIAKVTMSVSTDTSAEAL

[3] = molecular target: Cannabinoid receptor 1 (Mus musculus) (UniProt P47746); assay: Inverse agonist activity at CB1R in C57Bl/6Jhsd mouse cortex membrane assessed as inhibition of [35S]GTPgammaS binding incubated for 1 hr by liquid scintillation counter analysis; type: functional, cell membranes; conditions: filed as inverse agonist
[4] = Stability in SGF at pH 1.2 by HPLC analysis; type: physicochemical; conditions: simulated gi fluid
Mus musculus [5] = assay: Anti-obese activity in diet-induced obese male C57Bl/6J mouse model assessed as reduction in ALT level at 1 mg/kg/day, po treated for 24 days; type: functional, organism-based; conditions: time 24.0 day
Mus musculus [6] = assay: Anti-obese activity in diet-induced obese male C57Bl/6J mouse model assessed as reduction in AST level at 1 mg/kg/day, po treated for 24 days; type: functional, organism-based; conditions: time 24.0 day
Mus musculus [7] = assay: Anti-obese activity in diet-induced obese male C57Bl/6J mouse model assessed as increase in lean body mass at 1 mg/kg/day, po treated for 24 days by EchoMRI analysis; type: functional, organism-based; conditions: time 24.0 day
Mus musculus [8] = assay: Anti-obese activity in diet-induced obese male C57Bl/6J mouse model assessed as reversal of hepatic steatosis at 1 mg/kg/day, po treated for 24 days by H and E staining based analysis; type: functional, organism-based; conditions: time 24.0 day
Mus musculus [9] = assay: Anti-obese activity in diet-induced obese male C57Bl/6J mouse model assessed as decrease in total body fat at 1 mg/kg/day, po treated for 24 days by EchoMRI analysis; type: functional, organism-based; conditions: time 24.0 day
[10] = Mutagenicity in Salmonella typhimurium TA100 incubated for 48 to 72 hrs in presence of liver S9 fraction by mini-Ames test; type: toxicity, subcellular; conditions: salmonella enterica subsp. enterica serovar typhimurium, time 48-72 hrs
Mus musculus [11] = assay: Anti-obese activity in diet-induced obese male C57Bl/6J mouse model assessed as reduction in hypertriglyceridemia at 1 mg/kg/day, po treated for 24 days; type: functional, organism-based; conditions: time 24.0 day
Mus musculus [12] = assay: Anti-obese activity in diet-induced obese male C57Bl/6J mouse model assessed as reversal of hepatocellular damage at 1 mg/kg/day, po treated for 24 days by H and E staining based analysis; type: functional, organism-based; conditions: time 24.0 day
[13] = Toxicity in male C57Bl/6J mouse assessed as change in locomotor activity at 1 to 10 mg/kg, po; type: organism-based; conditions: in vivo, dose 1-10 mg/kg
Mus musculus [14] = assay: Inhibition of HU-210-induced hypoactivity in male C57Bl/6J mouse at 1 to 10 mg/kg, po; type: functional, organism-based; conditions: dose 1-10 mg/kg
[15] = Protein binding in mouse brain at 1 uM measured after 5 hrs by equilibrium dialysis method; type: ADME, tissue-based
[16] = Toxicity in male C57Bl/6J mouse assessed as CNS-mediated hyperactivity at 1 to 10 mg/kg, po; type: organism-based; conditions: in vivo, dose 1-10 mg/kg
Mus musculus [17] = assay: Anti-obese activity in diet-induced obese male C57Bl/6J mouse model assessed as reduction in ALP level at 1 mg/kg/day, po treated for 24 days; type: functional, organism-based; conditions: time 24.0 day
Mus musculus [18] = assay: Anti-obese activity in diet-induced obese male C57Bl/6J mouse model assessed as decrease in body weight at 1 mg/kg/day, po treated for 24 days; type: functional, organism-based; conditions: time 24.0 day
[19] = Stability in SIF at pH 6.8 by HPLC analysis; type: physicochemical; conditions: simulated gi fluid
Mus musculus [20] = assay: Anti-obese activity in diet-induced obese male C57Bl/6J mouse model assessed as reduction in glucose level in fasting condition at 1 mg/kg/day, po treated for 24 days; type: functional, organism-based; conditions: time 24.0 day
Mus musculus [21] = assay: Anti-obese activity in diet-induced obese male C57Bl/6J mouse model assessed as reduction in hypercholesterolemia at 1 mg/kg/day, po treated for 24 days; type: functional, organism-based; conditions: time 24.0 day
Mus musculus [22] = assay: Anti-obese activity in diet-induced obese male C57Bl/6J mouse model assessed as reduction in liver triglyceride content at 1 mg/kg/day, po treated for 24 days; type: functional, organism-based; conditions: time 24.0 day
[23] = Mutagenicity in Salmonella typhimurium TA98 incubated for 48 to 72 hrs in presence of liver S9 fraction by mini-Ames test; type: toxicity, subcellular; conditions: salmonella enterica subsp. enterica serovar typhimurium, time 48-72 hrs

Q: With `Cc1c(C(=O)NN2CCCCC2)nn(-c2ccc(Cl)cc2Cl)c1-c1ccc(Cl)cc1` as the compound, how does the inhibition (Mus musculus [1]) read?
A: Active

Q: Which Activity [2] does the source give for `CNC(=O)N[C@H]1CCCOc2c1nn(-c1ccccc1Cl)c2-c1ccc(Cl)cc1` here?
A: Active; Compound Exhibited As Neutral Antagonist

Q: For `Cc1ccc(S(=O)(=O)N[C@H]2CCCOc3c2nn(-c2ccccc2Cl)c3-c2ccc(Cl)cc2)cc1`, which Activity [3] is on record?
A: Active

Q: Which Activity [2] does the source give for `CS(=O)(=O)N[C@H]1CCCOc2c1nn(-c1ccccc1Cl)c2-c1ccc(Cl)cc1` here?
A: Active; Compound Exhibited As Neutral Antagonist

Q: For `O=S(=O)(N[C@H]1CCCOc2c1nn(-c1ccccc1Cl)c2-c1ccc(Cl)cc1)c1ccc(Cl)cc1`, which Stability [4] is on record?
A: Stable

Q: And the Activity (Mus musculus [5])?
A: Active

Q: What about the Activity (Mus musculus [6]) of the same compound?
A: Active

Q: What about the Activity (Mus musculus [7]) of the same compound?
A: Active

Q: What about the Activity (Mus musculus [8]) of the same compound?
A: Active

Q: What about the Activity (Mus musculus [9]) of the same compound?
A: Active

Q: What about the Activity [10] of the same compound?
A: Non-toxic

Q: What about the Activity (Mus musculus [11]) of the same compound?
A: Active

Q: And the Activity (Mus musculus [12])?
A: Active

Q: And the Activity [13]?
A: Non-toxic

Q: And the inhibition (Mus musculus [14])?
A: inactive

Q: And the PB [15]?
A: Active

Q: And the Activity [16]?
A: Non-toxic

Q: What about the Activity (Mus musculus [17]) of the same compound?
A: Active

Q: And the Activity (Mus musculus [18])?
A: Active

Q: And the Stability [19]?
A: Stable

Q: And the Activity (Mus musculus [20])?
A: Active

Q: What about the Activity (Mus musculus [21]) of the same compound?
A: Active

Q: What about the Activity (Mus musculus [22]) of the same compound?
A: Active

Q: What about the Activity [23] of the same compound?
A: Non-toxic

Q: And the Activity [2]?
A: Active; Compound Exhibited As Neutral Antagonist
